Paper PMC9079729, “Conservation of the conformational dynamics and ligand binding within M49 enzyme family” (RSC Advances, 2018)
Residues, ends and D or L forms follow the SMILES beside them.

Target: T1, yDPP III (Saccharomyces cerevisiae, UniProt Q08225)
T1 construct: His6 (C); made in house; host or cells: E. coli
T1 sequence (Q08225 1-711): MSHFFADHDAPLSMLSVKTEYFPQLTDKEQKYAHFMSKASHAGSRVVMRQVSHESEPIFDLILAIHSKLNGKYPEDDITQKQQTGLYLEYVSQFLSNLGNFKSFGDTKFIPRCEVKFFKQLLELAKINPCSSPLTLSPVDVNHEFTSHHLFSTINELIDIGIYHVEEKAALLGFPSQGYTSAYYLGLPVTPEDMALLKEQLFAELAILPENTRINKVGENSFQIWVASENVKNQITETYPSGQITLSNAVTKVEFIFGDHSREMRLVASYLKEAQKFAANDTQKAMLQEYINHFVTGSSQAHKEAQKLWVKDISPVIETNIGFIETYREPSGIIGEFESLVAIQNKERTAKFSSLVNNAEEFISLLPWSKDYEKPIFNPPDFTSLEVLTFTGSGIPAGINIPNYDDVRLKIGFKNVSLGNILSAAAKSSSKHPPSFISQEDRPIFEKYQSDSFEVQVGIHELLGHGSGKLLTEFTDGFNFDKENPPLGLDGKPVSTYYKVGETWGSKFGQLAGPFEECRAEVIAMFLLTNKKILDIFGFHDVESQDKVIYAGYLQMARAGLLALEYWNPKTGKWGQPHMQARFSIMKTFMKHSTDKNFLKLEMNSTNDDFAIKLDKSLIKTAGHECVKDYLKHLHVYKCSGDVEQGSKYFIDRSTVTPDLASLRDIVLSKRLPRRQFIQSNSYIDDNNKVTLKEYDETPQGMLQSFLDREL
Assay: Differential HDX-MS, unliganded vs. tynorphin complex
Format: binding, yeast (Saccharomyces cerevisiae)
Details: yDPP III peptide p42 (407-422)
Description: In the first step of the HDX analysis, optimization of digestion conditions and establishing a list of peptic peptides for all DPP III orthologues was carried out. With non-deuterated sample, a 5 μL aliquot of protein stock (between 35–50 μM in 20 mM Tris, pH 7.4) was diluted 10 times by adding 45 μL of 20 mM Tris, pH 7.4 (H2O reaction buffer). Next, the sample was acidified by mixing with 10 μL of 2 M glycine buffer, pH 2.5 (H2O stop buffer). The sample was subjected to online pepsin digestion using a 2.1 mm × 30 mm immobilized pepsin resin column (Porozyme, ABI, Foster City, CA) with 200 μL min^−1 flow of 0.07% formic acid in water as a mobile phase. Digested peptides were passed directly to the 2.1 mm × 5 mm C18 trapping column (Acquity BEH C18 VanGuard precolumn, 1.7 μm resin, Waters, Milford, MA). […]
Separate hydrogen deuterium exchange experiments were carried out for six unliganded DPP III enzymes, human V412I mutant, and their tynorphin complexes. […] The reaction buffer was prepared using D2O (99.8% Armar Chemicals, Switzerland), in which the pH (uncorrected meter reading) was adjusted using DCl or NaOD (Sigma). […] Relative deuterium uptake values are calculated without correction for back exchange. […]

CC(C)[C@H](N)C(=O)N[C@H](C(=O)N[C@@H](Cc1ccc(O)cc1)C(=O)N1CCC[C@H]1C(=O)N[C@@H](Cc1c[nH]c2ccccc12)C(=O)O)C(C)C [tynorphin] (H-VVYPW-OH)
deuterium incorporation decrease, fast exchanging conformation: less than 1% | deuterium incorporation decrease, slow exchanging conformation: more than 22%
